Patent publication US9636336B2, “Aminoester derivatives” (CHIESI FARMACEUTICI S.p.A., priority 2015, dated 2017)
pIC50, pKi: −log10 of the molar value. Read-outs that look alike come from different tables or passages of the source.

Key:
[1] = biological target: Human M3 receptor membranes (Homo sapiens (Human), UniProt P20309); test: M3 Receptor radioligand binding assay; conditions: M3 Receptor radioligand binding assay; for pKi: Ki from IC50 by Cheng and Prusoff
Description: M3 Receptor Radioligand Binding Assay:
The assay is carried out in 96-well polypropylene plates in a volume of 250 μl. […] The final assay concentration of DMSO is 0.5% (v/v). The plates are sealed and incubated for 2 h at room temperature on an orbital shaker (slow speed). Membranes are harvested onto 96-well unifilter GF/C filter plates pre-treated with 0.5% polyethyleneimine (v/v), using a filter manifold, washed four times with 200 μl of assay buffer. The plates are dried before addition of 50 μl of microscint-0, sealed then read in a Trilux Microbeta scintillation counter. IC50 values are determined from competition curves using a non-linear curve fitting program. Ki values are calculated from IC50 values by the Cheng and Prusoff equation.

[2] = test system: Cch-evoked bronchoconstriction in rats; test: Bronchospasm, percentage of inhibition (Cch-induced bronchoconstriction, duration of action); assay type: in vivo, Male CD Sprague Dawley rats; conditions: rat; for sub-maximal inhibition Dose: Dose producing about 80% (sub-maximal) inhibition of the bronchospasm after 1 h, intratracheal; for inhibition at 16 h: inhibition of bronchospasm 16 h after intratracheal administration of the sub-maximal inhibition dose
Description: Protocol of Bronchospasm—Percentage of Inhibition
Male CD Sprague Dawley rats (220-250 g) were purchased from Charles River Laboratories Italy (Calco, Lecco). Prior to use animals were acclimated for at least 5 days to the local vivarium conditions (room temperature: 20-24° C.; relative humidity: 40-70%), having free access to standard rat chow and softened tap water. All the procedures were performed in animal operating rooms according to ethical guidelines for the conduct of animal research (D. L.vo 116/92).
Treatment with Test Compounds
Animals were anaesthetised with Urethane (1.2 g/kg, i.p.) and a laryngoscope was moved forward into the mouth to visualize the trachea and guide the insertion of the tip of a custom made small diameter cannula directly into the trachea and located 1-2 mm above the bifurcation. Test compounds were dissolved in 100% dimethyl sulphoxide (DMSO) at 10^−2 M. The target concentration was obtained by dilution of the DMSO stock in saline. Test compounds were instilled locally into the trachea in a volume of 125 μl.
In order to assess the residual inhibitory activity of test compounds at 1-16 hours after their administration, rats were surgically prepared. In order to assess the Cch-induced bronchoconstriction in rats, the infusion of physiological solution was stopped and the bronchospastic agent injected into the jugular vein using the same cannula. Soon after washing the cannula with saline to ensure the complete administration of the bronchoconstrictor agent, the saline infusion was started again. Body temperature was kept constant at 37° C. by a heated blanket.
The trachea was cannulated and the lungs were ventilated artificially with a small animal constant volume ventilator (rodent ventilator mod. 7025, Ugo Basile, Comerio, Varese, Italy) at a frequency of 80 strokes/min and at a tidal volume of 2.5 ml/kg. To avoid spontaneous breathing, the animals were injected intravenously (i.v.) with pancuronium bromide (2 mg/kg). Bronchoconstriction was induced by the i.v. injection of Cch 50 μg/kg. In control experiments, repeated injections of this dose produced reproducible short-lasting (1-2 min duration) bronchospasms. Bronchoconstriction, quantified as a reduction of tidal volume, was evaluated according to the method described by Konzett & Roessler in Konzett H. and Roessler R., Versuchanornungzu untersuchungen ande bronchialmuskulatur. Arch. Exp. Path. Pharmak.; 195:71-74 (1940), which is incorporated herein by reference in its entirety.
Systemic blood pressure and changes in airway resistance were monitored with a digital pressure transducer connected to a bridge amplifier (PowerLab; Ugo Basile, Italy) and recorded using Chart 5 software (Ugo Basile, Italy).
After stabilization of artificial breathing and blood pressure, animals were injected (i.v.) with Cch every 3 min, until 3 stable and reproducible basal responses were obtained. […] The effect of test compounds was expressed as % inhibition of Cch-evoked bronchoconstriction in time-matched, vehicle-treated, animals (controls).

[3] = test system: smoking model of COPD in mice; conditions: cited from earlier work
[4] = test system: COPD patients; conditions: cited from earlier work
[5] = patients with severe disease, frequent exacerbations and mucus hypersecretion

Human M3 receptor membranes, sequence (P20309 whole entry): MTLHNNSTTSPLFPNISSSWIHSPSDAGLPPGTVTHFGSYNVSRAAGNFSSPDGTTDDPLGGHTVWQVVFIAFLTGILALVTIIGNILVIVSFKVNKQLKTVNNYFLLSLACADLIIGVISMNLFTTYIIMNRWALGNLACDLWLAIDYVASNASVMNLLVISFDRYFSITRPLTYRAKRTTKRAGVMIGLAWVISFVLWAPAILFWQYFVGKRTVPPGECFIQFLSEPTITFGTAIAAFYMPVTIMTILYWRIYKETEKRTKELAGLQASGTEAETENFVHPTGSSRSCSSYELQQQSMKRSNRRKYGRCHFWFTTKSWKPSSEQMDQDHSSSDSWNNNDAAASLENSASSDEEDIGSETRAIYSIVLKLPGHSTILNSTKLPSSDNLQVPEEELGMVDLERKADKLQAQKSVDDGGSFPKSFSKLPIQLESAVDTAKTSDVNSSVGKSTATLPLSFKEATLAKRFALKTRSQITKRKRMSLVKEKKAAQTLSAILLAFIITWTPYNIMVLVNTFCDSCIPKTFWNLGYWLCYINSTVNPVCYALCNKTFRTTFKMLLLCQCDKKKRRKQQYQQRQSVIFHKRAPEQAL

SMILES	pKi [1]	pIC50 ([1]; read-out: M3 IC50)	sub-maximal inhibition Dose [2] [nmol/kg]	inhibition at 16 h [2] [%]	pIC50 ([1]; read-out: M3 IC50 activity)	lung inflammation and emphysema [3]	reduction of numbers of neutrophils in sputum ([4]; COPD patients, oral, over 4 weeks) [%]	improvement of FEV 1 [4, 5]	reduction of exacerbation [4, 5]
COc1ccc([C@H](Cc2c(Cl)c[n+]([O-])cc2Cl)OC(=O)c2ccc(CNC(C(=O)O[C@H]3CCN(C)C3)c3ccccc3)s2)cc1OC (single isomer, unassigned) [Example 78c, reference compound]	9.27	8.97	100	26					
COc1ccc([C@H](Cc2c(Cl)c[n+]([O-])cc2Cl)OC(=O)c2ccc(CNC(CO)(C(=O)OCC3CCN(C)CC3)c3ccccc3)s2)cc1OC (stereo partly drawn) [Example 105, [(1S)-2-(3,5-dichloro-1-oxido-pyridin-1-ium-4-yl)-1-(3,4-dimethoxyphenyl)ethyl] 5-[[[1-(hydroxymethyl)-2-[(1-methyl-4-piperidyl)methoxy]-2-oxo-1-phenyl-ethyl]amino]methyl]thiophene-2-carboxylate]			30	88					
COc1ccc([C@H](Cc2c(Cl)c[n+]([O-])cc2Cl)OC(=O)c2ccc(CNC(C(=O)OC[C@H]3CCN(C)C3)c3ccccc3)s2)cc1OC (stereo partly drawn) [Example 78, [(1S)-2-(3,5-dichloro-1-oxido-pyridin-1-ium-4-yl)-1-(3,4-dimethoxyphenyl)ethyl] 5-[[[2-[[(3S)-1-methylpyrrolidin-3-yl]methoxy]-2-oxo-1-phenyl-ethyl]amino]methyl]thiophene-2-carboxylate]			30	51	8.00 to 9.00				
O=C(Nc1c(Cl)cncc1Cl)c1ccc(OC(F)F)c(OCC2CC2)c1 [roflumilast]						inhibits lung inflammation and emphysema	36	approximately 50 mL	about 15%
COc1ccc([C@H](Cc2c(Cl)c[n+]([O-])cc2Cl)OC(=O)c2ccc(CNC(C(=O)OC3CCN(C)CC3)c3ccccc3)s2)cc1OC (single isomer, unassigned) [Example 87c, reference compound]	9.52	9.30	30	<10					
COc1ccc([C@H](Cc2c(Cl)c[n+]([O-])cc2Cl)OC(=O)c2ccc(CNC(C(=O)OCC3CCN(C)CC3)c3ccccc3)s2)cc1OC (stereo partly drawn) [Example 87, [(1S)-2-(3,5-dichloro-1-oxido-pyridin-1-ium-4-yl)-1-(3,4-dimethoxyphenyl)ethyl] 5-[[[2-[(1-methyl-4-piperidyl)methoxy]-2-oxo-1-phenyl-ethyl]amino]methyl]thiophene-2-carboxylate]			10	>90					
COc1ccc([C@H](Cc2c(Cl)c[n+]([O-])cc2Cl)OC(=O)c2ccc(CNC(CO)(C(=O)OC3CCN(C)CC3)c3ccccc3)s2)cc1OC (single isomer, unassigned) [Example 105c, reference compound]	9.64	9.35	10	35					
